Data from US5695970A, “Glucan lyase producing 1,5-anhydrofructose” (priority 1992, dated 1997).
“Also recorded” adds a separate entry of the source.

Tests used:
α-1,4-glucan lyase [1] = experiment: Substrate specificity of α-1,4-glucan lyase, long term incubation (24 h), continuation of Table IV; type: biochemical, Gracilariopsis lemaneiformis; details: for activity of the lyase with the substrate (in words): long term incubation at 30° C.; for Product released: 24 h; for release of 1,5-anhydrofructose and glucose checked by TLC on Silica gel 60: after 24 h of incubation
Protocol: The incubation time was 24 h.
(§1) The reaction mixture for the assay of α-1,4-glucan lyase was composed of 240 μl 62.5 mM Mops-NaOH containing 6 mg soluble starch (pH 6.2), the enzyme preparation and distilled water to a final volume of 300 μl. The reaction was carried out at 30° C. for 10-30 min. Liberated 1,5-anhydrofructose was determined by monitoring the absorbance at 546 nm after the addition of 3,5-dinitrosalicylic acid reagent. Soluble starch in the reaction mixture may be replaced by other substrates and the final substrate concentration may be varied as indicated in the text. The reaction time and enzyme concentration used in enzyme activity assay have been chosen to ensure the linearity of the reaction rate. One unit of α-1,4-glucan lyase activity is defined as the amount of enzyme which liberates 1μmol of 1,5-anhydrofructose min^-1 under the conditions described above.

α-1,4-glucan lyase [2] = experiment: Inhibition studies of α-1,4-glucan lyase activity; type: biochemical, Gracilariopsis lemaneiformis; details: for inhibition of enzymic activity: 0.1M; for inhibition of the algal enzyme (in words): summary statement; for inhibition of the enzyme: 50mM
Protocol: as §1

[3] = inhibitor 2 mM, amylopectin as substrate
[4] = inhibitor 2 mM, maltose as substrate
[5] = substrate 4 mg ml^-1, 1.64 μg enzyme
[6] = substrate 10 mM, 1.64 μg enzyme
[7] = substrate 10 mg ml^-1, 1.64 μg enzyme

With “blocked p-nitrophenyl-α-D-maltoheptaoside [BPNPG7]” the “activity of the lyase with the substrate (in words)” value (“activity of the lyase” for short) (α-1,4-glucan lyase [1]) was “very low degrading rate; also recorded: little or no activity” and the Product released (α-1,4-glucan lyase [1]; substrate 2 mM, 4.91 μg enzyme) was 6.16 nmol.

For arabinose, the “inhibition of enzymic activity” value (α-1,4-glucan lyase [2]; amylopectin as substrate) was “no inhibition” and the “inhibition of enzymic activity” value (α-1,4-glucan lyase [2]; maltose as substrate) was “no inhibition”.

With `OC[C@H]1NC[C@H](O)[C@@H](O)[C@@H]1O` [Deoxynojirimycin, deoxynojirimycin] the “inhibition of enzyme activity” value (α-1,4-glucan lyase [2]; inhibitor 0.165 mM, maltose as substrate) was “inhibit the activity completely”, the “inhibition of enzyme activity” value (α-1,4-glucan lyase [2]; [3]) was “completely inhibited” and the “inhibition of enzyme activity” value (α-1,4-glucan lyase [2]; [4]) was “completely inhibited”. The “inhibition of the algal enzyme (in words)” value (shortened to “inhibition … (in words)”) (α-1,4-glucan lyase [2]; no concentration) was “strongly inhibited”.

`OC[C@H]1O[C@@H](O[C@H]2[C@H](O)[C@@H](O)C(O)O[C@@H]2CO)[C@H](O)[C@@H](O)[C@@H]1O` (stereo partly shown) [Cellobiose, cellobiose] was tested, and the “release of 1,5-anhydrofructose and glucose checked by TLC on Silica gel 60” value (from here on “release … on Silica gel 60”) (α-1,4-glucan lyase [1]) was “No 1,5-anhydrofructose and glucose were released” and the Product released (α-1,4-glucan lyase [1]; [5]) was 0 nmol.

With `OC[C@H]1O[C@@H]2O[C@H]3[C@H](O)[C@@H](O)[C@@H](O[C@H]4[C@H](O)[C@@H](O)[C@@H](O[C@H]5[C@H](O)[C@@H](O)[C@@H](O[C@H]6[C@H](O)[C@@H](O)[C@@H](O[C@H]7[C@H](O)[C@@H](O)[C@@H](O[C@H]1[C@H](O)[C@H]2O)O[C@@H]7CO)O[C@@H]6CO)O[C@@H]5CO)O[C@@H]4CO)O[C@@H]3CO` [Cyclohexaamylose, cyclohexaamylose] the “release … on Silica gel 60” value (α-1,4-glucan lyase [1]) was “No 1,5-anhydrofructose and glucose were released”, the Product released (α-1,4-glucan lyase [1]; substrate 20 mM, 1.64 μg enzyme) was 0 nmol and the “inhibitory effect on the enzyme activity” value (α-1,4-glucan lyase [2]; 4 mM, maltose as substrate) was “no inhibitory effect”. For the same molecule, the “inhibitory effect on the enzyme activity” value (α-1,4-glucan lyase [2]; 4 mM, soluble starch as substrate) was “no inhibitory effect”.

In the case of `[Cl-].[K+]` [KCl], the “inhibition of the enzyme” value (α-1,4-glucan lyase [2]; amylopectin as substrate) was “no inhibition” and the “inhibition of the enzyme” value (α-1,4-glucan lyase [2]; maltose as substrate) was “no inhibition”.

For `[Cl][Mn][Cl]` [MnCl2], the “inhibition of the enzyme” value (α-1,4-glucan lyase [2]; amylopectin as substrate) was “no inhibition” and the “inhibition of the enzyme” value (α-1,4-glucan lyase [2]; maltose as substrate) was “no inhibition”.

In the case of `CO[C@H]1O[C@H](CO)[C@@H](O)[C@H](O)[C@H]1O` [Methyl α-D-glucoside, methyl α-D-glucoside], the “release … on Silica gel 60” value (α-1,4-glucan lyase [1]) was “No 1,5-anhydrofructose and glucose were released”, the Product released (α-1,4-glucan lyase [1]; [6]) was 0 nmol and the “inhibitory effect on the enzyme activity” value (α-1,4-glucan lyase [2]; 12 mM, maltose as substrate) was “no inhibitory effect”. For the same molecule, the “inhibitory effect on the enzyme activity” value (α-1,4-glucan lyase [2]; 12 mM, soluble starch as substrate) was “no inhibitory effect”.

`O=P(O)(O)O[C@H]1O[C@H](CO)[C@@H](O)[C@H](O)[C@H]1O` [Glucose 1-Phosphate] was tested, and the Product released (α-1,4-glucan lyase [1]; [6]) was 0 nmol.

With `[Cl][Hg][Cl]` [HgCl2] the “inhibition … (in words)” value (α-1,4-glucan lyase [2]; no concentration) was “strongly inhibited”.

`O=[N+]([O-])c1ccc(O[C@H]2O[C@H](CO)[C@@H](O)[C@H](O)[C@@H]2O)cc1` [PNPMan, p-introphenyl-α-D-mannoside] was tested, and the “activity of the lyase” value (α-1,4-glucan lyase [1]) was “no activity” and the Product released (α-1,4-glucan lyase [1]; substrate 2 mM, 1.64 μg enzyme) was 0 nmol.

xylose was tested, and the “inhibition of enzymic activity” value (α-1,4-glucan lyase [2]; amylopectin as substrate) was “no inhibition” and the “inhibition of enzymic activity” value (α-1,4-glucan lyase [2]; maltose as substrate) was “no inhibition”.

`[Cl-].[Cl-].[Mg+2]` [MgCl2] was tested, and the “inhibition of the enzyme” value (α-1,4-glucan lyase [2]; amylopectin as substrate) was “no inhibition” and the “inhibition of the enzyme” value (α-1,4-glucan lyase [2]; maltose as substrate) was “no inhibition”.

In the case of `O=C(O)c1cc[c]([Hg][Cl])cc1` [PCMB, p-chloromercuribenzoic acid], the “inhibition of enzyme activity” value (α-1,4-glucan lyase [2]; [3]) was “around 90%”, the “inhibition of enzyme activity” value (α-1,4-glucan lyase [2]; [4]) was “around 90%” and the “inhibition … (in words)” value (α-1,4-glucan lyase [2]; no concentration) was “strongly inhibited”.

For `OC[C@@H](O)[C@@H](O)[C@H](O)[C@@H](O)CO` [sorbitol], the “inhibition of enzymic activity” value (α-1,4-glucan lyase [2]; amylopectin as substrate) was “no inhibition” and the “inhibition of enzymic activity” value (α-1,4-glucan lyase [2]; maltose as substrate) was “no inhibition”.

`OC[C@H]1O[C@H](OC[C@H]2OC(O)[C@H](O)[C@@H](O)[C@@H]2O)[C@H](O)[C@@H](O)[C@@H]1O` (stereo partly shown) [Isomaltose, isomaltose] was tested, and the “release … on Silica gel 60” value (α-1,4-glucan lyase [1]) was “No 1,5-anhydrofructose and glucose were released” and the Product released (α-1,4-glucan lyase [1]; [5]) was 0 nmol.

With `[Ca+2].[Cl-].[Cl-]` [CaCl2] the “inhibition of the enzyme” value (α-1,4-glucan lyase [2]; amylopectin as substrate) was “no inhibition” and the “inhibition of the enzyme” value (α-1,4-glucan lyase [2]; maltose as substrate) was “no inhibition”.

For `OC[C@H]1O[C@@H](O[C@H]2[C@H](O)[C@@H](O)C(O)O[C@@H]2CO)[C@H](O)[C@@H](O)[C@H]1O` (stereo partly shown) [Lactose, lactose], the “release … on Silica gel 60” value (α-1,4-glucan lyase [1]) was “No 1,5-anhydrofructose and glucose were released”, the Product released (α-1,4-glucan lyase [1]; [7]) was 0 nmol and the “inhibition of enzymic activity” value (α-1,4-glucan lyase [2]; amylopectin as substrate) was “no inhibition”. The “inhibition of enzymic activity” value (α-1,4-glucan lyase [2]; maltose as substrate) was “no inhibition”.

With `OC[C@H]1O[C@H](OC[C@H]2OC(O)[C@H](O)[C@@H](O)[C@@H]2O)[C@H](O)[C@@H](O)[C@H]1O` (stereo partly shown) [Melibiose, melibiose] the “release … on Silica gel 60” value (α-1,4-glucan lyase [1]) was “No 1,5-anhydrofructose and glucose were released”, the Product released (α-1,4-glucan lyase [1]; [7]) was 0 nmol and the “inhibition of enzymic activity” value (α-1,4-glucan lyase [2]; amylopectin as substrate) was “no inhibition”. For the same molecule, the “inhibition of enzymic activity” value (α-1,4-glucan lyase [2]; maltose as substrate) was “no inhibition”.

`OC[C@H]1O[C@@](CO)(O[C@H]2O[C@H](CO)[C@@H](O)[C@H](O)[C@H]2O)[C@@H](O)[C@@H]1O` [Sucrose, sucrose] was tested, and the “release … on Silica gel 60” value (α-1,4-glucan lyase [1]) was “No 1,5-anhydrofructose and glucose were released”, the Product released (α-1,4-glucan lyase [1]; [7]) was 0 nmol and the “inhibition of enzymic activity” value (α-1,4-glucan lyase [2]; amylopectin as substrate) was “no inhibition”. For the same molecule, the “inhibition of enzymic activity” value (α-1,4-glucan lyase [2]; maltose as substrate) was “no inhibition”.

`O=[N+]([O-])c1ccc(O[C@H]2O[C@H](CO)[C@H](O)[C@H](O)[C@H]2O)cc1` [PNPGal, p-nitrophenyl-α-D-galactoside] was tested, and the “activity of the lyase” value (α-1,4-glucan lyase [1]) was “no activity” and the Product released (α-1,4-glucan lyase [1]; substrate 2 mM, 1.64 μg enzyme) was 0 nmol.

For `O[C@H]1[C@H](O)[C@@H](O)[C@H](O)[C@@H](O)[C@H]1O` [inositol], the “inhibition of enzymic activity” value (α-1,4-glucan lyase [2]; amylopectin as substrate) was “no inhibition” and the “inhibition of enzymic activity” value (α-1,4-glucan lyase [2]; maltose as substrate) was “no inhibition”.

For `OC[C@H]1O[C@H](O[C@H]2O[C@H](CO)[C@@H](O)[C@H](O)[C@H]2O)[C@H](O)[C@@H](O)[C@@H]1O` [Trehalose, trehalose], the “release … on Silica gel 60” value (α-1,4-glucan lyase [1]) was “No 1,5-anhydrofructose and glucose were released”, the Product released (α-1,4-glucan lyase [1]; [7]) was 0 nmol and the “inhibition of enzymic activity” value (α-1,4-glucan lyase [2]; amylopectin as substrate) was “no inhibition”. For the same molecule, the “inhibition of enzymic activity” value (α-1,4-glucan lyase [2]; maltose as substrate) was “no inhibition”.

For `OC[C@@H](O)[C@@H](O[C@H]1O[C@H](CO)[C@@H](O)[C@H](O)[C@H]1O)[C@H](O)[C@@H](O)CO` [Maltitol, maltitol], the Product released (α-1,4-glucan lyase [1]; [5]) was 122.4 nmol, the “inhibition of enzymic activity” value (α-1,4-glucan lyase [2]; amylopectin as substrate) was about 27% and the “inhibition of enzymic activity” value (α-1,4-glucan lyase [2]; maltose as substrate) was “around 47%”. The type of inhibition (α-1,4-glucan lyase [2]; maltose as substrate) was “competitive” and the “inhibition … (in words)” value (α-1,4-glucan lyase [2]; maltose as substrate) was “inhibited”.

For `Nc1ncnc2c1ncn2[C@@H]1O[C@H](COP(=O)(O)OP(=O)(O)O[C@H]2O[C@H](CO)[C@@H](O)[C@H](O)[C@H]2O)[C@@H](O)[C@H]1O` [ADP-Glucose], the Product released (α-1,4-glucan lyase [1]; substrate 5 mM, 1.64 μg enzyme) was 0 nmol.

In the case of `OC[C@H]1O[C@H](OC[C@H]2O[C@H](O[C@H]3[C@H](O)[C@@H](O)C(O)O[C@@H]3CO)[C@H](O)[C@@H](O)[C@@H]2O)[C@H](O)[C@@H](O)[C@@H]1O` (stereo partly shown) [Panose, panose], the Product released (α-1,4-glucan lyase [1]; [5]) was 13465.6 nmol.

`OCC(O)CO` [glycerol] was tested, and the “inhibition of enzymic activity” value (α-1,4-glucan lyase [2]; amylopectin as substrate) was “no inhibition” and the “inhibition of enzymic activity” value (α-1,4-glucan lyase [2]; maltose as substrate) was “no inhibition”.

`OC[C@H]1O[C@H](O[C@H]2[C@H](O)[C@@H](CO)OC(O)[C@@H]2O)[C@H](O)[C@@H](O)[C@@H]1O` (stereo partly shown) [Nigerose, nigerose] was tested, and the “activity of the lyase” value (α-1,4-glucan lyase [1]) was “able to degrade” and the Product released (α-1,4-glucan lyase [1]; [5]) was 13452.8 nmol.
